Assay results from US12173322B2, “Genome-edited induced pluripotent stem cells, and cells derived therefrom, and uses thereof” (priority 2020, dated 2024).
Read-outs that look alike come from different tables or passages of the source.

Columns and labels:
Assay type in all cases: cell-based
hKv4.3/hKChIP2 = target: T1, hKv4.3/hKChIP2 (Homo sapiens, UniProt Q9UK17); test: Patch clamp electrophysiology (QPatch CiPA), hKv4.3/hKChIP2; settings: for IC50: Antagonist, read-out: Estimated IC50
T1 construct: Eurofins
T1 sequence (Q9UK17 1-655): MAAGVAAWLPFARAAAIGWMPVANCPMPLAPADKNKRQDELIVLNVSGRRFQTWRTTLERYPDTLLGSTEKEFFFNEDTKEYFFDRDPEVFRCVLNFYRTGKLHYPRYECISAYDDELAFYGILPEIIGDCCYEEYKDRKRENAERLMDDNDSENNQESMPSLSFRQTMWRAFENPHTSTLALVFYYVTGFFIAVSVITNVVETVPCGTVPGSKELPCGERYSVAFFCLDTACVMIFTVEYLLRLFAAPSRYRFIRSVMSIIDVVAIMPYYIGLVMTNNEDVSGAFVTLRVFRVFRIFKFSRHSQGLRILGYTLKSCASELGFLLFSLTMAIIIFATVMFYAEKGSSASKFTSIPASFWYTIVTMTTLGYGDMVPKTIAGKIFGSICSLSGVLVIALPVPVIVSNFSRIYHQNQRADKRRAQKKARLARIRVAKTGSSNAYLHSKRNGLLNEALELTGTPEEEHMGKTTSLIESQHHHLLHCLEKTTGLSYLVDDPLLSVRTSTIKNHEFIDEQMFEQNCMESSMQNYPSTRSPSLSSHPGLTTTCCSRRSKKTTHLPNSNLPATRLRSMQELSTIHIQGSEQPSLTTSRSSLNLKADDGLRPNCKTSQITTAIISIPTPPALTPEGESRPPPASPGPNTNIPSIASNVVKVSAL
T1 sequence (Q9NS61 1-270 partner): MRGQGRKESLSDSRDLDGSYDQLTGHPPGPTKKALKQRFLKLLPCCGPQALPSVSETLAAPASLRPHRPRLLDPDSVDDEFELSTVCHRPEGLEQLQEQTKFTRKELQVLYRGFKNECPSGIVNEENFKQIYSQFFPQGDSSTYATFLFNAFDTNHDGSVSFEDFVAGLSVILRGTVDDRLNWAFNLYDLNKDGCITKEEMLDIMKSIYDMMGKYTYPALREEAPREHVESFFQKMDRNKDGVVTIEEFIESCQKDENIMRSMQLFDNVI

hCav1.2 = target: T2, hCav1.2 (Homo sapiens, UniProt Q13936); test: Patch clamp electrophysiology (QPatch CiPA), hCav1.2
T2 construct: Eurofins
T2 sequence (Q13936 whole entry): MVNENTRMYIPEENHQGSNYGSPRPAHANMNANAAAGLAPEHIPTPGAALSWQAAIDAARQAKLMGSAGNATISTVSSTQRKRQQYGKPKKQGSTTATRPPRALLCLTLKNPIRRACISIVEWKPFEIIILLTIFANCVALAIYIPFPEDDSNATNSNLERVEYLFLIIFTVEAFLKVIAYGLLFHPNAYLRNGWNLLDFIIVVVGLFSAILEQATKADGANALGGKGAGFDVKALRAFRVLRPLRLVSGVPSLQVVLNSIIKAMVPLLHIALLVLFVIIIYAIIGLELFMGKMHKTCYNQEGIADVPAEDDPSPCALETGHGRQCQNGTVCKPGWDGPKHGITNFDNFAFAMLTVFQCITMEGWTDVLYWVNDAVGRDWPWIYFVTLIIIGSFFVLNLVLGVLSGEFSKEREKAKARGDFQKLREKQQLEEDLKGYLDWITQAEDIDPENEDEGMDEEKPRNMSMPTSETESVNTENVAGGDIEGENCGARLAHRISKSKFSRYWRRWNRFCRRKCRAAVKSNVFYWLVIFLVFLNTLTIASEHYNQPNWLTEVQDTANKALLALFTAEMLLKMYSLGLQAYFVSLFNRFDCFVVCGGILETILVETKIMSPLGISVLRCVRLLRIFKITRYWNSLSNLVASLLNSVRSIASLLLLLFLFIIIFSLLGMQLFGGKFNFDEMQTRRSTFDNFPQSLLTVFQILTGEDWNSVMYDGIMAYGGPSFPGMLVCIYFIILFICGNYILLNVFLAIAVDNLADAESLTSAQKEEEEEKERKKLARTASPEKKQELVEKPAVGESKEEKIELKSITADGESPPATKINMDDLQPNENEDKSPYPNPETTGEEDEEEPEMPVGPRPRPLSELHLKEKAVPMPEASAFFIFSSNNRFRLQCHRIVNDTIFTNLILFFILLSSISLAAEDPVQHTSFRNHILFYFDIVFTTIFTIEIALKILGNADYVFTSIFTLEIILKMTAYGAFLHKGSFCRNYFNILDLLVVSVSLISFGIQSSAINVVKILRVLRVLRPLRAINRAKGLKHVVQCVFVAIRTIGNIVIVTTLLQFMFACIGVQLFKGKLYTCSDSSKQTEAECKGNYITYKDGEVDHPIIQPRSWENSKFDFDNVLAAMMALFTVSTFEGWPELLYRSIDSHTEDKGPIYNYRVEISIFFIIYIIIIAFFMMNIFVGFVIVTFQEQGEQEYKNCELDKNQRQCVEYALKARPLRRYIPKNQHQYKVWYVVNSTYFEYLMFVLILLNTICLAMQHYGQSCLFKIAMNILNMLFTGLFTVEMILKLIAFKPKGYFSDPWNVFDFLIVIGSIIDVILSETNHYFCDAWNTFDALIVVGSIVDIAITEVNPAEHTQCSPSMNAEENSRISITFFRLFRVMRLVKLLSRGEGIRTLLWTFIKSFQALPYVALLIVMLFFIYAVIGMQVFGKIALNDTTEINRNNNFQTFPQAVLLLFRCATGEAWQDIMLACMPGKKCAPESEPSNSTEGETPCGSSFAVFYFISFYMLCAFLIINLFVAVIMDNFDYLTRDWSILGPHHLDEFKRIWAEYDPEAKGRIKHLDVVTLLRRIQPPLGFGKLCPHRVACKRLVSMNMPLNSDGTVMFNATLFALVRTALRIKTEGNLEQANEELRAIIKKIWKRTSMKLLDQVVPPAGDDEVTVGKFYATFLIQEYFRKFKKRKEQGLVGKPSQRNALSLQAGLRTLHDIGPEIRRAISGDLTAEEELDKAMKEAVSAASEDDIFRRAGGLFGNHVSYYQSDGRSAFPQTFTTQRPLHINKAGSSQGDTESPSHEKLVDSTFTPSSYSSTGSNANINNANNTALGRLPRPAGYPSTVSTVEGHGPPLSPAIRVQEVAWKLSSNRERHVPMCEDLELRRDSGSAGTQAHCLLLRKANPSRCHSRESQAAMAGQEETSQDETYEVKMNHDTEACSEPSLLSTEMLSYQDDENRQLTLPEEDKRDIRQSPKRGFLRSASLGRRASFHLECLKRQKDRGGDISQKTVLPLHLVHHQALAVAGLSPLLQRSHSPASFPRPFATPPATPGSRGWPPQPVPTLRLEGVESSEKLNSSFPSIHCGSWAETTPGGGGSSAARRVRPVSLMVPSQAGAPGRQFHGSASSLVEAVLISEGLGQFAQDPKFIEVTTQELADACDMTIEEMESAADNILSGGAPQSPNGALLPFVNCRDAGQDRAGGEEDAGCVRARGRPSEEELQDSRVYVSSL
T2 sequence (Q08289 whole entry partner): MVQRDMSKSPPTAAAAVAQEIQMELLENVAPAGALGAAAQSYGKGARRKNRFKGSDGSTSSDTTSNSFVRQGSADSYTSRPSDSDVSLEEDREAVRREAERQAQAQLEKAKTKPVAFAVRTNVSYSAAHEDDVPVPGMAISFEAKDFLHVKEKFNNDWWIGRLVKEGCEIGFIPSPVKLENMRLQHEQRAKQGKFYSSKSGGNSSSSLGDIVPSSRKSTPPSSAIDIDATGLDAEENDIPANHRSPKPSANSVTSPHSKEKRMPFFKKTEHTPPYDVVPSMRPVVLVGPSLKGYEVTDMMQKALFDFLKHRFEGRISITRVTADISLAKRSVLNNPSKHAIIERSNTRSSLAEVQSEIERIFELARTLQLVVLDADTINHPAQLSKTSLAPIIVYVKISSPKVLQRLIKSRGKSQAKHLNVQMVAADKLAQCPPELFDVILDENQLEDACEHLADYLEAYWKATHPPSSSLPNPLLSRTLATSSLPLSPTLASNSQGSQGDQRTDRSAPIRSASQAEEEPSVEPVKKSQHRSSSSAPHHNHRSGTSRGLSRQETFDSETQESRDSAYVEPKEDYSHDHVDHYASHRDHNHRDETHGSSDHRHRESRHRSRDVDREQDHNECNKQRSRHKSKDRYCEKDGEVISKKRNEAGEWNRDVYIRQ
T2 sequence (P54289 25-956 partner limits assumed): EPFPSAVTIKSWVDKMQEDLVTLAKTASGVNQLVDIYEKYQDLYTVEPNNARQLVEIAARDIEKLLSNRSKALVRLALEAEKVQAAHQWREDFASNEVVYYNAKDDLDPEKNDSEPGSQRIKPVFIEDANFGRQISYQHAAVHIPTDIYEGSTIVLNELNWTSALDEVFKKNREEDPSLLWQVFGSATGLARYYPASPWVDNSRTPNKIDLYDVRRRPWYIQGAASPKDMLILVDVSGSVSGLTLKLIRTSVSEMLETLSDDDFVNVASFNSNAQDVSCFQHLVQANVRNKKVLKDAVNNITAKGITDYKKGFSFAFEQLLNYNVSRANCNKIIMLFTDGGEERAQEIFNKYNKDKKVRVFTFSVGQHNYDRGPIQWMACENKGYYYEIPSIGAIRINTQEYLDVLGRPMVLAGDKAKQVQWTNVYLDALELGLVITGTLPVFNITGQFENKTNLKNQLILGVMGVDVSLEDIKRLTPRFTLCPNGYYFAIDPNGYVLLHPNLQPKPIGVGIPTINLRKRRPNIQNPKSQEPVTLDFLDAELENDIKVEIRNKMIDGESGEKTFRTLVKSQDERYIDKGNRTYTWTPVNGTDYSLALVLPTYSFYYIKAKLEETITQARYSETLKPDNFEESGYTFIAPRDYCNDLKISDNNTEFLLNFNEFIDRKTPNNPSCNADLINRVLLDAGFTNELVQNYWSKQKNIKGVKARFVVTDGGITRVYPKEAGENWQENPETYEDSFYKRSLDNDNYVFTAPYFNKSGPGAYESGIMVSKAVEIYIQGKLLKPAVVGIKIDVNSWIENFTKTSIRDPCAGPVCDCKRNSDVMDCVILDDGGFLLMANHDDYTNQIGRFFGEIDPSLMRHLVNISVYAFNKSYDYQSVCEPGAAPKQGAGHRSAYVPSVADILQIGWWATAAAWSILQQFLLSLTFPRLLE
T2 sequence (P54289 957-1103 partner limits assumed): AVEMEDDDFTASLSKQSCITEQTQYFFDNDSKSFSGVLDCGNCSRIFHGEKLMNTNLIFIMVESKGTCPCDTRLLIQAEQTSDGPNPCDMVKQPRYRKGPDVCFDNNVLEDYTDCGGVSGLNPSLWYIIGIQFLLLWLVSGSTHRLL

hNav1.5 = target: T3, hNav1.5 (Homo sapiens, UniProt Q14524); test: Patch clamp electrophysiology (QPatch CiPA), hNav1.5
T3 construct: Eurofins

[1] = End, read-out: % inhibition mean
[2] = Peak, read-out: % inhibition mean
[3] = Peak, read-out: % inhibition n1
[4] = Peak, read-out: % inhibition n2

## O=C(NCC1CCCCN1)c1cc(OCC(F)(F)F)ccc1OCC(F)(F)F (centres unmarked) [Flecainide]
hKv4.3/hKChIP2; End
  IC50: 10 µM
hKv4.3/hKChIP2; Peak
  IC50: 22.5 µM
hKv4.3/hKChIP2; [1]
  inhibition at 0.03 µM: 6.93%
  inhibition at 0.3 µM: 7.17%
  inhibition at 3 µM: 26.8%
  inhibition at 30 µM: 71.8%
  inhibition at 300 µM: 90.5%
hKv4.3/hKChIP2; End, read-out: % inhibition n1
  inhibition at 0.03 µM: 5.29%
  inhibition at 0.3 µM: 2.84%
  inhibition at 3 µM: 25.6%
  inhibition at 30 µM: 69.2%
  inhibition at 300 µM: 90%
hKv4.3/hKChIP2; End, read-out: % inhibition n2
  inhibition at 0.03 µM: 8.57%
  inhibition at 0.3 µM: 11.5%
  inhibition at 3 µM: 27.9%
  inhibition at 30 µM: 74.4%
  inhibition at 300 µM: 91%
hKv4.3/hKChIP2; [2]
  inhibition at 0.03 µM: 9.2%
  inhibition at 0.3 µM: 8.4%
  inhibition at 3 µM: 12.6%
  inhibition at 30 µM: 55.2%
  inhibition at 300 µM: 97.4%
hKv4.3/hKChIP2; [3]
  inhibition at 0.03 µM: 7.41%
  inhibition at 0.3 µM: 4.05%
  inhibition at 3 µM: 10.6%
  inhibition at 30 µM: 57.5%
  inhibition at 300 µM: 97.4%
hKv4.3/hKChIP2; [4]
  inhibition at 0.03 µM: 11%
  inhibition at 0.3 µM: 12.8%
  inhibition at 3 µM: 14.5%
  inhibition at 30 µM: 53%
  inhibition at 300 µM: 97.3%

## COC(=O)C1=C(C)NC(C)=C(C(=O)OC)C1c1ccccc1[N+](=O)[O-] [Nifedipine]
hCav1.2; read-out: % inhibition mean
  inhibition at 0.001 µM: 15.1%
  inhibition at 0.01 µM: 34.8%
  inhibition at 0.1 µM: 55.7%
  inhibition at 1 µM: 61%
  inhibition at 10 µM: 83.8%
  inhibition at 100 µM: 94.8%
hCav1.2; read-out: % inhibition n1
  inhibition at 0.001 µM: 21.6%
  inhibition at 0.01 µM: 38.2%
  inhibition at 0.1 µM: 53.1%
  inhibition at 1 µM: 56.8%
  inhibition at 10 µM: 81.4%
  inhibition at 100 µM: 95.2%
hCav1.2; read-out: % inhibition n2
  inhibition at 0.001 µM: 8.54%
  inhibition at 0.01 µM: 31.5%
  inhibition at 0.1 µM: 58.2%
  inhibition at 1 µM: 65.2%
  inhibition at 10 µM: 86.1%
  inhibition at 100 µM: 94.5%

## CCCCNc1ccc(C(=O)OCCN(C)C)cc1 [Tetracaine]
hNav1.5; read-out: % inhibition mean
  inhibition at 0.03 µM: 6.44%
  inhibition at 0.3 µM: 27.2%
  inhibition at 3 µM: 71.3%
  inhibition at 30 µM: 91.3%
  inhibition at 300 µM: 95.9%
hNav1.5; read-out: % inhibition n1
  inhibition at 0.03 µM: 6.26%
  inhibition at 0.3 µM: 28.8%
  inhibition at 3 µM: 74.2%
  inhibition at 30 µM: 93.8%
  inhibition at 300 µM: 96.6%
hNav1.5; read-out: % inhibition n2
  inhibition at 0.03 µM: 6.62%
  inhibition at 0.3 µM: 25.6%
  inhibition at 3 µM: 68.5%
  inhibition at 30 µM: 88.8%
  inhibition at 300 µM: 95.2%
